Assay results published in US10065990B2, “Cyclic peptide compound, and preparation method, pharmaceutical composition and use thereof” (HANGZHOU GUANYU BIO-MEDICAL CO., LTD, priority 2013, dated 2018).

How the values were obtained:
HDAC7 = molecular target: T1, HDAC7 (Homo sapiens, UniProt Q8WUI4); assay: HDAC biochemical activity measurement (fluorescent substrate deacetylation);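 further: fluorogenic deacetylation assay using acetyl-lysine substrate at 20 µM, enzyme and compound incubated 30 min at 37 °C, then developer added, fluorescence read at 360/460 nm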; settings: HDAC7; 37° C. 30 minutes
T1 sequence (Q8WUI4 1-952): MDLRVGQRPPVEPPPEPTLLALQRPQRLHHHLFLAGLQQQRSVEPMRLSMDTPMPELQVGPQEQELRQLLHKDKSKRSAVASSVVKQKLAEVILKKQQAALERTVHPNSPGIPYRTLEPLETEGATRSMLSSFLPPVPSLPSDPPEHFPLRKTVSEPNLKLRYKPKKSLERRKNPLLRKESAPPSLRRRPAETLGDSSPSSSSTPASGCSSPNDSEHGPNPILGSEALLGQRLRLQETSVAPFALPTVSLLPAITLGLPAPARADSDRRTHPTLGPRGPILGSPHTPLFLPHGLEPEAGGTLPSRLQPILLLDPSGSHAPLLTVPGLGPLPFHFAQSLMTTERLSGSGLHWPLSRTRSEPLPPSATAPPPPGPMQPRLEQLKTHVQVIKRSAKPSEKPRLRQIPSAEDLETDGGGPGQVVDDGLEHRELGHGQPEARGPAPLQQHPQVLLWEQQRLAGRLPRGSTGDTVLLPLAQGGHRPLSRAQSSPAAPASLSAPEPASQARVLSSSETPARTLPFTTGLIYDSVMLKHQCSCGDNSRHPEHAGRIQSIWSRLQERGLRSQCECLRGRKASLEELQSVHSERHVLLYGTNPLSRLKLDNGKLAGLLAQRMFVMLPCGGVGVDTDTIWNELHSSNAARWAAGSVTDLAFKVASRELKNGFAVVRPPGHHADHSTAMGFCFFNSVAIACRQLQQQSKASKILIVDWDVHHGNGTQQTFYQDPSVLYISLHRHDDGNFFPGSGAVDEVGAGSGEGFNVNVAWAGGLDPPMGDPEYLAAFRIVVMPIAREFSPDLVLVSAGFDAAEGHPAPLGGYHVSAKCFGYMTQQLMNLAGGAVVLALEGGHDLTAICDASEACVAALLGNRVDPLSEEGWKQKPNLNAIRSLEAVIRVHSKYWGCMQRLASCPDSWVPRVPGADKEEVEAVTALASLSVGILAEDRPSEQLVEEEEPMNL

[1] = tested on: U937 (human leukemia cells); assay: MTT cancer cell growth inhibition; type: cell-based; settings: Homo sapiens, U-937, 72 h, U937 cells, MTT, 72 hours incubation; read-out: GI50 U93
Summary of the method: (§1)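 Using a 72 h MTT format, triplicate wells of 1500 cells received compound concentrations from 10^−5 to 10^−10 M. Formazan was read at 570 nm after DMSO dissolution, and GI50 was derived from viability.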

[2] = tested on: MDA-MB-231 (breast cancer cells); assay: MTT cancer cell growth inhibition; type: cell-based; settings: Homo sapiens, MDA-MB-231, 72 h, read-out: GI50 MDA-MB-231, MTT, 72 hours incubation, MDA-MB-231 cells
Summary of the method: as §1

[3] = tested on: H1975 (non-small cell lung adenocarcinoma); assay: MTT cancer cell growth inhibition; type: cell-based; settings: Homo sapiens, NCI-H1975, 72 h, MTT, 72 hours incubation, H1975 cells; read-out: GI50 H1975
Summary of the method: as §1

[4] = tested on: SGC-7901 (human gastric cancer cells); assay: MTT cancer cell growth inhibition; type: cell-based; settings: Homo sapiens, SGC-7901, 72 h, MTT, 72 hours incubation, SGC-7901 cells; read-out: GI50 SGC-7901
Summary of the method: as §1

[5] = tested on: Huh-7 (human hepatoma cells); assay: MTT cancer cell growth inhibition; type: cell-based; settings: Homo sapiens, Huh-7, 72 h, MTT, 72 hours incubation, Huh-7 cells; read-out: GI50 Huh-7
Summary of the method: as §1

[6] = tested on: A549 (human lung cancer cells); assay: MTT cancer cell growth inhibition; type: cell-based; settings: Homo sapiens, A549, 72 h, A549 cells, MTT, 72 hours incubation; read-out: GI50 A54
Summary of the method: as §1

[7] = tested on: Bel-7402 (human hepatoma cells); assay: MTT cancer cell growth inhibition; type: cell-based; settings: Homo sapiens, Bel-7402, 72 h, MTT, 72 hours incubation, Bel-7402 cells; read-out: GI50 Bel-7402
Summary of the method: as §1

[8] = tested on: HCC827 (human non-small cell lung cancer cells); assay: MTT cancer cell growth inhibition; type: cell-based; settings: Homo sapiens, HCC827, 72 h, MTT, 72 hours incubation, HCC827 cells; read-out: GI50 HCC827
Summary of the method: as §1

[9] = tested on: MOLT-4 (human acute lymphoblastic leukemia cells); assay: MTT cancer cell growth inhibition; type: cell-based; settings: Homo sapiens, MOLT-4, 72 h, MOLT-4 cells, MTT, 72 hours incubation; read-out: GI50 Mol
Summary of the method: as §1

[10] = tested on: KBM5-T315I (human chronic myelogenous leukemia); assay: MTT cancer cell growth inhibition; type: cell-based; settings: Homo sapiens, 72 h, MTT, 72 hours incubation, KBM5-T315I cells; read-out: GI50 KBM5-T315I
Summary of the method: as §1

[11] = tested on: K562 (human leukemia cells); assay: MTT cancer cell growth inhibition; type: cell-based; settings: Homo sapiens, K562, 72 h, MTT, 72 hours incubation, K562 cells; read-out: GI50 K562
Summary of the method: as §1

[12] = tested on: MCF-7 (human breast cancer cells); assay: MTT cancer cell growth inhibition; type: cell-based; settings: Homo sapiens, MCF7, 72 h, MCF-7 cells, 72 hours incubation, read-out: GI50 MCF
Summary of the method: as §1

[13] = tested on: BGC-823 (human gastric cancer cells); assay: MTT cancer cell growth inhibition; type: cell-based; settings: Homo sapiens, BGC-823, 72 h, BGC-823 cells, MTT, 72 hours incubation; read-out: GI50 BG
Summary of the method: as §1

[14] = tested on: HT1080 (human fibrosarcoma cells); assay: MTT cancer cell growth inhibition; type: cell-based; settings: Homo sapiens, HT-1080, 72 h, HT1080 cells, MTT, 72 hours incubation; read-out: GI50 HT1
Summary of the method: as §1

[15] = tested on: PANC-1 (Pac-1, human pancreatic cancer cells); assay: MTT cancer cell growth inhibition; type: cell-based; settings: Homo sapiens, PANC-1, 72 h, PANC-1 cells, MTT, 72 hours incubation; read-out: GI50 PAN
Summary of the method: as §1

[16] = tested on: lncap (prostate cancer cells); assay: MTT cancer cell growth inhibition; type: cell-based; settings: Homo sapiens, LNCaP, 72 h, lncap cells, MTT, 72 hours incubation; read-out: GI50 lnca
Summary of the method: as §1

[17] = tested on: KBM-5 (human chronic myelogenous leukemia); assay: MTT cancer cell growth inhibition; type: cell-based; settings: Homo sapiens, KBM5, 72 h, MTT, 72 hours incubation, KBM-5 cells; read-out: GI50 KBM-5
Summary of the method: as §1

[18] = tested on: DU145 (human prostate cancer cells); assay: MTT cancer cell growth inhibition; type: cell-based; settings: Homo sapiens, DU-145, 72 h, DU145 cells, MTT, 72 hours incubation; read-out: GI50 Du1
Summary of the method: as §1

[19] = tested on: N-87 (human gastric cancer cells); assay: MTT cancer cell growth inhibition; type: cell-based; settings: Homo sapiens, 72 h, MTT, 72 hours incubation, N-87 cells; read-out: GI50 N-87
Summary of the method: as §1

[20] = tested on: Hela (human cervical cancer cells); assay: MTT cancer cell growth inhibition; type: cell-based; settings: Homo sapiens, HeLa, 72 h, Hela cells, MTT, 72 hours incubation; read-out: GI50 Hela
Summary of the method: as §1

Row | Compound | IC50 HDAC7 (HDAC7) | GI50 [1] | GI50 [2] | GI50 [3] | GI50 [4] | GI50 [5] | GI50 [6] | GI50 [7] | GI50 [8] | GI50 [9] | GI50 [10] | GI50 [11] | GI50 [12] | GI50 [13] | GI50 [14] | GI50 [15] | GI50 [16] | GI50 [17] | GI50 [18] | GI50 [19] | further results
1 | C/C=C1\NC(=O)c2cc(SC)cc(n2)CNC(=O)C[C@@H](/C=C/CCSC(=O)CCCCCCC)OC(=O)[C@H](C(C)C)NC1=O [Compound 148] | no activity | 0.02 µM | 0.051 µM | 0.039 µM | 0.051 µM | 0.064 µM | 0.02 µM | 0.053 µM | 0.016 µM | 0.08 µM | 0.053 µM | 0.062 µM | 0.05 µM | 0.04 µM | 0.08 µM | 0.04 µM | 0.04 µM | 0.035 µM | 0.05 µM | 0.047 µM | GI50 [20]: 0.04 µM
2 | C/C=C1\NC(=O)c2ccc(SC)c(n2)CNC(=O)C[C@@H](/C=C/CCSC(=O)CCCCCCC)OC(=O)[C@H](C(C)C)NC1=O [Compound 149] | no activity | 0.02 µM | 0.035 µM | 0.07 µM | 0.042 µM | 0.075 µM | 0.02 µM | 0.063 µM | 0.029 µM | 0.08 µM | 0.041 µM | 0.032 µM | 0.06 µM | 0.03 µM | 0.08 µM | 0.03 µM | 0.05 µM | 0.021 µM | 0.06 µM | 0.039 µM | GI50 [20]: 0.05 µM
3 | C/C=C1\NC(=O)c2nc(ccc2SC)CNC(=O)C[C@@H](/C=C/CCSC(=O)CCCCCC)OC(=O)[C@H](C(C)C)NC1=O [Compound 150] | no activity | 0.03 µM | 0.021 µM | 0.079 µM | 0.087 µM | 0.046 µM | 0.03 µM | 0.058 µM | 0.063 µM | 0.08 µM | 0.039 µM | 0.055 µM | 0.04 µM | 0.03 µM | 0.08 µM | 0.03 µM | 0.06 µM | 0.026 µM | 0.04 µM | 0.033 µM | GI50 [20]: 0.06 µM
4 | C/C=C1\NC(=O)c2ccc(SC)c(n2)CNC(=O)C[C@@H](/C=C/CCSC(=O)CCCCCC)OC(=O)[C@H](C(C)C)NC1=O [Compound 152] | no activity | 0.05 µM | 0.065 µM | 0.038 µM | 0.023 µM | 0.028 µM | 0.05 µM | 0.047 µM | 0.035 µM | 0.09 µM | 0.029 µM | 0.011 µM | 0.06 µM | 0.05 µM | 0.09 µM | 0.05 µM | 0.06 µM | 0.041 µM | 0.06 µM | 0.035 µM | GI50 [20]: 0.06 µM
5 | C/C=C1\NC(=O)c2cc(SC)cc(n2)CNC(=O)C[C@@H](/C=C/CCSC(=O)CCCCC)OC(=O)[C@H](C(C)C)NC1=O [Compound 154] | no activity | 0.04 µM | 0.053 µM | 0.038 µM | 0.012 µM | 0.047 µM | 0.04 µM | 0.053 µM | 0.075 µM | 0.09 µM | 0.071 µM | 0.028 µM | 0.05 µM | 0.04 µM | 0.09 µM | 0.04 µM | 0.04 µM | 0.029 µM | 0.05 µM | 0.063 µM | GI50 [20]: 0.04 µM
6 | C/C=C1\NC(=O)c2ccc(SC)c(n2)CNC(=O)C[C@@H](/C=C/CCSC(=O)CCCCC)OC(=O)[C@H](C(C)C)NC1=O [Compound 155] | no activity | 0.04 µM | 0.011 µM | 0.023 µM | 0.033 µM | 0.038 µM | 0.04 µM | 0.041 µM | 0.023 µM | 0.09 µM | 0.056 µM | 0.075 µM | 0.05 µM | 0.04 µM | 0.09 µM | 0.04 µM | 0.04 µM | 0.035 µM | 0.05 µM | 0.032 µM | GI50 [20]: 0.04 µM
7 | C/C=C1\NC(=O)c2nc(ccc2SC)CNC(=O)C[C@@H](/C=C/CCSC(=O)CCCC)OC(=O)[C@H](C(C)C)NC1=O [Compound 156] | no activity | 0.02 µM | 0.063 µM | 0.018 µM | 0.045 µM | 0.035 µM | 0.03 µM | 0.023 µM | 0.043 µM | 0.01 µM | 0.033 µM | 0.031 µM | 0.02 µM | 0.05 µM | 0.08 µM | 0.05 µM | 0.03 µM | 0.017 µM | 0.08 µM | 0.065 µM | GI50 [20]: 0.03 µM
